Measured values taken from US10203320B2, “Label free method for assessing chemical cardiotoxicity” (Corning Incorporated, priority 2012, dated 2019).

Key:
[1] = system: cultured human iPS-derived cardiomyocytes; assay: Label-free beat pattern (resonant light intensity imaging) of cultured cardiomyocytes on RWG biosensor; details: Cardiomyocyte, 0.25 h, read-out: IC50, dose-dependent decrease/block of beating (beat rate and amplitude) of cultured cardiomyocytes
Procedure: Coating of EPIC® resonant waveguide grating (RWG) biosensors. EPIC® 384 well cell culture compatible plates were obtained from Corning, Inc. (Corning, N.Y.). The gelatin-coated EPIC® plates were obtained by incubating the plates with 10 microliter of 20 microgram/mL of freshly prepared gelatin solution in phosphate buffer saline and dried overnight under vacuum. Alternatively or additionally, for example, in experiments with IPS derived cardiomyocytes, the gelatin-coated EPIC® plates were obtained by incubating overnight, uncoated plates with 40 microliters of 0.1% gelatin (Type A) in a solution made with distilled water and autoclaved for 30 minutes to sterilize. The incubated plates were then washed with 40 microliters of sterile water three times immediately before seeding with cardiomyocyte cells.

[2] = system: cultured human iPS-derived cardiomyocytes; assay: Dynamic mass redistribution (DMR) assay of cultured cardiomyocytes on RWG biosensor; type: cell-based; details: 160 nM
Procedure: Coating of EPIC® resonant waveguide grating (RWG) biosensors. […] VN is the abbreviation of a vitronectin peptide ([…]). First, a functionalized cell adhesive peptide-copolymer was prepared. […] The mobile phase was trifluoroethanol and potassium trifluoroacetate. […] Standards were prepared using the VN peptide in PBS. Absorbance was read on a BIOTEK® Synergy 4.
First Mode The resonant waveguide grating biosensor is illuminated at a normal incidence angle by a collimated LED (light emitting diode) beam, which passes through a tunable optical filter with a pass band width of 1 nm. The illuminated sensor area was imaged to a high speed CMOS (complementary metal-oxide-semiconductor) camera. Spectral images were acquired synchronously when the tunable filter sweeps through a wavelength range which covers the resonances of the biosensors. The image stack contains sensor spectra in all the pixels, where resonance wavelengths are extracted in a 2D image. Normally in each acquisition, the wavelength sweep is from 825 nm to 840 nm, or 820 nm to 835 nm for a duration of 3 seconds, and 150 frames of images were acquired during the wavelength scan. For typical long-term DMR assays, the update rate was from 15 seconds to minutes, with multiple scans averaged into a single data point. […]

SMILES | IC50 [1] [nM] | DMR signal of cultured cardiomyocytes in response to stimulation ([2]; compared to negative control (assay vehicle), 37° C., FIG. 3) | oscillation pattern of the DMR signal after stimulation ([2]; compared to the baseline and the DMR induced by the assay buffer)
COc1cc(N)c(Cl)cc1C(=O)NC1CCN(CCCOc2ccc(F)cc2)CC1OC (stereo not shown) [cisapride, cisapride monohydrate] | ~160 |  | 
CC(C)NC[C@H](O)c1ccc(O)c(O)c1 [isoprotenerol, (−)-Isoproterenol] |  | more sustained DMR signal | became smaller but with higher frequency
COC(=O)C1=C(C)NC(C)=C(C(=O)OC(C)C)C1c1cccc2nonc12 (stereo not shown) [isradipine] | ~100 |  | 
